Eleven compounds from patent US8513232B2, “Substituted spirocyclic piperidine derivatives as histamine-3 (H3) receptor ligands” (Cephalon, Inc., priority 2008, dated 2013) can be followed below.

Series [1] deals with T1, rat histamine H3 receptor (Rattus norvegicus, UniProt Q9QYN8).
T1 construct: encoding the entire 445-amino-acid rat histamine H3 receptor; expressed in transfected cells; membrane preparation
The experiment in a line: Rat H3 radioligand binding ([3H]-N-alpha-methylhistamine, SPA). The conditions noted are these: rat H3 binding, Table D; read-out: Rat H3 Ki. The method, boiled down: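 Membranes from CHO-A3 cells stably expressing full-length rat H3 receptor (10 μg protein/well) incubated 4 h at room temperature, protected from light, with ~1 nM [3H]-N-alpha-methylhistamine and compound (0.01 nM-30 μM) in 50 mM Tris HCl pH 7.4, 5 mM MgCl2, 0.1% BSA. Binding read by SPA; 10 μM clobenpropit defined non-specific binding.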

The target in the next series is T2, human H3 receptor (Homo sapiens, UniProt Q9Y5N1).
T2 construct: expressed in transfected cells
T2 sequence (Q9Y5N1 whole entry): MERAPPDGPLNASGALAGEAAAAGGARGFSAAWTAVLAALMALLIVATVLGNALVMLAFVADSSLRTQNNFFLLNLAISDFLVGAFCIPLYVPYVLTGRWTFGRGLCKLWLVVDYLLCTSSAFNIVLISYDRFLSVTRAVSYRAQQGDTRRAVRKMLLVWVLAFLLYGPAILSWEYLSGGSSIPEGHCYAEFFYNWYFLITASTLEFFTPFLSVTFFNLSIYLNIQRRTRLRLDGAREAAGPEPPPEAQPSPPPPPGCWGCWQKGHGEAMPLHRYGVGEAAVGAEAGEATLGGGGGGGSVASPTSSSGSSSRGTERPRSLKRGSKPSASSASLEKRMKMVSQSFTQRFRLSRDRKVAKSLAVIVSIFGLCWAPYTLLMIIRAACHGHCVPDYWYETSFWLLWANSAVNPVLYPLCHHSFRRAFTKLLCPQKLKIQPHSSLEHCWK
The experiment in a line: Human H3 radioligand binding ([3H]-N-alpha-methylhistamine, SPA). The note with it: human H3 binding, Table D; read-out: Human H3 Ki. The method, boiled down:
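SPA competition binding on membranes from CHO cells stably expressing human H3 receptor (10 μg protein/well) with ~1 nM [3H]-N-alpha-methylhistamine and compound at 0.01 nM-30 μM. Incubation 4 h at room temperature in 50 mM Tris-HCl pH 7.4, 5 mM MgCl2, 0.1% BSA; non-specific binding defined with 10 μM clobenpropit.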

T1 sequence (Q9QYN8 whole entry): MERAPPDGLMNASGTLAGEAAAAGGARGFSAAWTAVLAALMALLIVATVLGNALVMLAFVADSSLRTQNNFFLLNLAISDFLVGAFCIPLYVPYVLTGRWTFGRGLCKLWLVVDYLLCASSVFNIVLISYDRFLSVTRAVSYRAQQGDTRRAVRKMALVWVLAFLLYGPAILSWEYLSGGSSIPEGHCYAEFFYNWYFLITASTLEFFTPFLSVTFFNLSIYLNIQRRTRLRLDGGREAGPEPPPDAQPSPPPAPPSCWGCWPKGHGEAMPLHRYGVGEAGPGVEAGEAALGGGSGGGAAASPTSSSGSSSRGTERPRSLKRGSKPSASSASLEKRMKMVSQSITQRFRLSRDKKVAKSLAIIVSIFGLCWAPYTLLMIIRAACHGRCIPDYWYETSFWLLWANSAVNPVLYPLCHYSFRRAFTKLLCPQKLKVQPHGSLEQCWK

As usually defined, the Ki is the equilibrium dissociation constant of an inhibitor or competing ligand from its target. Usually melting point stands for the temperature of the solid-liquid transition. As to `COc1ccc(-c2ccc3c(c2)CCC2(CCN(C4CCC4)CC2)O3)c(C)n1` [Example 797], the melting point was 72 to 73 °C. In addition, the inhibitory constant (Ki) in series [1] was less than 0.2 µM. The Ki at human H3 receptor is less than 0.2 µM.

For the compound `COCc1cc(=O)[nH]cc1-c1ccc2c(c1)COC1(CCN(C3CCC3)CC1)O2` [Example 798], the melting point fell in the range of 217 to 219 °C. Further, the inhibitory constant (Ki) in series [1] is less than 0.2 µM. Besides, the Ki on human H3 receptor is less than 0.2 µM.

In turn, `Cc1c(-c2ccc3c(c2)COC2(CCN(C4CCC4)CC2)O3)c[nH]c(=O)c1C` [Example 799] had a melting point of 178 to 180 °C. Further, in series [1], the inhibition constant (Ki) was less than 0.2 µM. Besides, the Ki on human H3 receptor was less than 0.2 µM.

In turn, `COc1ncc(-c2ccc3c(c2)COC2(CCN(C4CCC4)CC2)O3)c(C)c1C` [Example 800] returned a melting point of 233 to 235 °C. Moreover, in series [1], the Ki was less than 0.2 µM. In addition, the Ki at human H3 receptor was less than 0.2 µM.

As to `Cc1nc2cccc(Cl)c2c(=O)n1-c1ccc2c(c1)COC1(CCN(C3CCC3)CC1)O2` [Example 801], the melting point fell in the range of 105 to 107 °C. In addition, the inhibitory constant (Ki) in series [1] was less than 0.2 µM. For the same compound, the inhibition constant Ki at human H3 receptor was less than 0.2 µM.

As to `CCc1cc(OC)ncc1-c1ccc2c(c1)COC1(CCN(C3CCC3)CC1)O2` [Example 802], the melting point fell in the range of 156 to 160 °C. Besides, the Ki in series [1] is less than 0.2 µM. Besides, the Ki at human H3 receptor is less than 0.2 µM.

`CCc1cc(=O)[nH]cc1-c1ccc2c(c1)COC1(CCN(C3CCC3)CC1)O2` [Example 803]: the melting point lay in the range of 107 to 109 °C. Further, the Ki in series [1] is less than 0.2 µM. Besides, on human H3 receptor, the inhibition constant Ki was less than 0.2 µM.

On to `COCc1cc(-c2ccc3c(c2)COC2(CCN(C4CCC4)CC2)O3)cnc1OC` [Example 804], for which the melting point worked out at 257 °C. Besides, in series [1], the inhibition constant Ki was less than 0.2 µM. For the same compound, at human H3 receptor, the Ki was less than 0.2 µM.

For the compound `COCc1cc(-c2ccc3c(c2)COC2(CCN(C4CCC4)CC2)O3)c[nH]c1=O` [Example 805], the melting point lay in the range of 212 to 214 °C. Further, in series [1], the inhibition constant (Ki) is less than 0.2 µM. The Ki at human H3 receptor is less than 0.2 µM.

Compound `Cc1cc(=O)[nH]c(C)c1-c1ccc2c(c1)COC1(CCN(C3CCC3)CC1)O2` [Example 806] displayed a melting point of 247 to 249 °C. Also, the inhibitory constant (Ki) in series [1] was less than 0.2 µM. The inhibition constant (Ki) at human H3 receptor is less than 0.2 µM.

The compound `CCc1cc(-c2ccc3c(c2)COC2(CCN(C4CCC4)CC2)O3)c(C)[nH]c1=O` [Example 808] displayed a melting point of 211 to 213 °C. In series [1], the Ki is less than 0.2 µM. Moreover, the Ki at human H3 receptor is less than 0.2 µM.
